# Assay results published in the supplement of paper PMC10307832.
# Tests used:
# Test in all cases: relative viability (nuclei count vs DMSO), 5 days (fraction); higher = more cells survive
# [1] = compound: CN(C)CC1=CC(=CC=C1)N=C(C2=CC=CC=C2)C3=C(NC4=C3C=CC(=C4)C(=O)N(C)C)O + Nc1nc2[nH]cc(CCc3ccc(C(=O)N[C@@H](CCC(=O)O)C(=O)O)cc3)c2c(=O)[nH]1 [Pemetrexed] (partner 0.2 µM)
# Outline: (§1)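 Dosing by pin tool came one day after lung cancer cell lines were seeded in 1536-well plates, using either one drug or a fixed anchor-drug dose plus five library-drug doses (not always all listed) in √10 steps. After 5 days, nuclei were counted on 4× images. Relative viability is treated-well nuclei count divided by vehicle-well nuclei count, and values are medians of duplicate plates.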
# [2] = compound: CN(C)CC1=CC(=CC=C1)N=C(C2=CC=CC=C2)C3=C(NC4=C3C=CC(=C4)C(=O)N(C)C)O + COc1cccc2cc(-c3nc([C@H]4CC[C@H](C(=O)O)CC4)n4ncnc(N)c34)[nH]c12 [OSI-027] (partner 0.5 µM)
# Outline: as §1
# [3] = compound: CN(C)CC1=CC(=CC=C1)N=C(C2=CC=CC=C2)C3=C(NC4=C3C=CC(=C4)C(=O)N(C)C)O + COc1cc2c(Oc3ccc(NC(=O)C4(C(=O)Nc5ccc(F)cc5)CC4)cc3F)ccnc2cc1OCCCN1CCOCC1 [Foretinib] (partner 0.25 µM)
# Outline: as §1
# [4] = compound: CN(C)CC1=CC(=CC=C1)N=C(C2=CC=CC=C2)C3=C(NC4=C3C=CC(=C4)C(=O)N(C)C)O + NC(=O)Nc1cc(-c2cccc(F)c2)sc1C(=O)N[C@H]1CCCNC1 [AZD7762] (partner 0.2 µM)
# Outline: as §1
Cell Line,relative viability ([1]; first compound 0.08 µM),relative viability ([1]; first compound 0.253 µM),relative viability ([1]; first compound 0.8 µM),relative viability ([1]; first compound 2.53 µM),relative viability ([1]; first compound 8 µM),relative viability ([2]; first compound 0.08 µM),relative viability ([2]; first compound 0.253 µM),relative viability ([2]; first compound 0.8 µM),relative viability ([2]; first compound 2.53 µM),relative viability ([2]; first compound 8 µM),relative viability ([3]; first compound 0.08 µM),relative viability ([3]; first compound 0.253 µM),relative viability ([3]; first compound 0.8 µM),relative viability ([3]; first compound 2.53 µM),relative viability ([3]; first compound 8 µM),relative viability ([4]; first compound 0.08 µM),relative viability ([4]; first compound 0.253 µM),relative viability ([4]; first compound 0.8 µM),relative viability ([4]; first compound 2.53 µM),relative viability ([4]; first compound 8 µM)
COR-L23,0.205,0.2,0.193,0.196,0.19,0.722,0.788,0.818,0.741,0.732,1.08,0.972,1.03,0.88,0.925,,,,,
LK-2,0.286,0.253,0.236,0.269,0.211,0.189,0.228,0.241,0.211,0.185,1.15,1.16,1.27,1.15,1.17,0.457,0.416,0.426,0.493,0.341
PC-14,0.13,0.13,0.147,0.15,0.135,0.913,0.85,0.968,0.734,0.563,0.9,0.903,1.02,0.934,0.951,0.392,0.395,0.377,0.387,0.411
SW 1573,0.823,0.83,0.987,0.792,0.768,0.581,0.644,0.626,0.638,0.521,0.919,0.808,0.759,0.867,0.973,,,,,
NCI-H2087,0.629,0.644,0.617,0.721,0.68,0.552,0.668,0.569,0.542,0.367,1,1.07,1.19,1.09,0.955,1.13,1.28,1.36,1.45,1.33
NCI-H460,0.0639,0.0794,0.0612,0.0522,0.0565,0.615,0.727,0.824,0.65,0.335,0.995,1.07,0.994,0.928,1.04,0.667,0.511,0.636,,0.664
NCI-H1734,0.405,0.441,0.436,0.398,0.436,0.599,0.6,0.56,0.561,0.577,0.765,0.839,0.819,0.771,0.807,0.644,0.532,0.506,0.56,0.526
NCI-H1648,0.717,0.758,,0.739,0.668,0.266,,0.308,0.277,0.252,,,,,,0.638,0.706,,0.718,0.606
NCI-H2228,0.312,0.36,0.339,0.33,0.353,0.638,0.736,0.615,0.492,0.419,0.946,0.904,0.77,0.88,0.708,,,,,
HCC-44,0.691,0.583,0.693,0.598,0.716,0.67,0.584,0.6,0.392,0.533,,,,,,1,0.987,1.03,0.946,1.04
EMC-BAC-2,0.437,0.445,0.582,0.435,0.508,0.369,0.416,0.392,0.356,0.391,1.11,0.99,0.963,0.944,0.958,1.23,1.15,1.27,1.06,1.16
NCI-H522,1.03,1.04,0.763,1.07,0.817,0.68,0.693,0.694,0.651,0.643,,,,,,0.972,0.871,0.855,0.953,0.736
NCI-H1915,0.51,0.446,0.629,0.513,0.417,0.635,0.643,0.71,0.659,0.575,1.03,1.06,1.13,1.12,1.05,0.704,0.729,0.756,0.699,0.578
NCI-H661,0.867,0.901,0.935,0.928,0.907,0.718,0.679,0.665,0.718,0.567,0.996,0.963,0.957,0.966,0.883,,,,,
LCLC-97TM1,0.167,0.198,0.187,0.183,0.177,0.611,0.627,0.543,0.436,0.656,0.958,0.821,0.822,0.917,0.975,0.312,0.328,0.241,0.281,0.281
NCI-H1793,0.901,0.872,0.553,0.791,0.823,0.29,0.299,,0.329,0.196,0.745,0.66,,0.734,0.621,0.527,0.386,0.407,0.346,0.436
HOP-62,0.264,0.248,0.438,0.344,0.322,0.852,0.847,0.827,0.769,0.799,1.08,1.01,1.12,1.05,1.17,0.505,0.566,0.496,0.693,0.673
HCC-827,0.266,0.241,0.25,0.229,0.269,0.795,0.712,0.749,0.686,0.699,1.05,1.08,1.01,1.02,0.876,0.232,0.26,0.156,0.229,0.182
NCI-H2126,0.677,0.706,0.708,0.639,0.626,0.612,0.745,0.812,0.8,0.676,1.1,1.13,1.17,1.16,1.02,0.974,0.96,0.931,0.943,0.976
RERF-LC-KJ,0.473,0.453,0.491,0.443,0.499,0.575,0.613,0.537,0.583,0.542,0.865,0.894,0.873,0.833,0.907,1.02,1,0.796,1.05,0.866

Cell Line,relative viability ([1]; first compound 0.08 µM),relative viability ([1]; first compound 0.253 µM),relative viability ([1]; first compound 0.8 µM),relative viability ([1]; first compound 2.53 µM),relative viability ([1]; first compound 8 µM),relative viability ([2]; first compound 0.08 µM),relative viability ([2]; first compound 0.253 µM),relative viability ([2]; first compound 0.8 µM),relative viability ([2]; first compound 2.53 µM),relative viability ([2]; first compound 8 µM),relative viability ([3]; first compound 0.08 µM),relative viability ([3]; first compound 0.253 µM),relative viability ([3]; first compound 0.8 µM),relative viability ([3]; first compound 2.53 µM),relative viability ([3]; first compound 8 µM),relative viability ([4]; first compound 0.08 µM),relative viability ([4]; first compound 0.253 µM),relative viability ([4]; first compound 0.8 µM),relative viability ([4]; first compound 2.53 µM),relative viability ([4]; first compound 8 µM)
NCI-H2342,0.763,0.762,0.829,0.836,0.778,0.63,0.535,0.621,0.708,0.65,1.08,1.06,0.979,1.17,1.05,0.428,0.582,0.471,0.461,0.472
A-427,1.06,0.993,1,0.955,0.926,0.472,0.429,0.497,0.509,0.36,1.07,1.17,1.07,0.986,0.883,0.75,0.666,0.712,0.676,0.631
HARA,0.214,0.234,0.203,0.291,0.228,0.525,0.553,0.397,0.482,0.319,0.398,1.02,1.06,0.867,0.79,0.296,0.351,0.155,0.258,0.324
NCI-H1792,0.872,0.826,0.702,0.673,0.838,0.77,0.729,0.709,0.721,0.58,,,,,,0.639,0.658,0.643,0.506,0.71
ABC-1,,,,,,0.433,0.504,0.442,0.568,0.447,1.31,1.12,0.851,1,1.28,0.805,1.11,0.81,0.903,0.676
Calu-6,,,,,,,,,,,0.923,0.882,0.948,0.906,0.929,,,,,
NCI-H2023,0.228,0.251,0.238,0.19,0.246,0.321,0.468,0.488,0.318,0.335,0.766,0.731,0.785,0.737,0.602,,,,,
NCI-H1650,0.34,0.353,0.344,0.373,0.39,0.756,0.686,0.612,0.714,0.524,1.17,1.12,1.08,1.05,0.977,,,,,
IA-LM,,,,,,,,,,,1.16,1.19,1.3,1.18,1.32,,,,,
EBC-1,,,,,,,,,,,0.0943,0.112,0.0994,0.103,0.107,,,,,
UMC-11,0.779,0.752,0.839,0.714,0.736,0.492,0.489,0.565,0.404,0.368,1.01,1.07,1.06,1.05,0.997,,,,,
NCI-H520,0.688,0.654,0.737,0.563,0.435,0.213,0.247,0.267,0.3,0.218,0.799,0.789,0.695,0.712,0.649,,,,,
NCI-H727,,,,,,0.72,0.581,0.59,0.573,0.537,0.896,0.877,0.804,0.942,0.664,,0.546,0.577,0.867,0.583
SK-MES-1,0.961,0.881,1,0.89,0.897,0.618,0.689,0.635,0.534,0.533,0.84,0.975,0.844,0.87,0.901,,,,,
NCI-H1563,0.829,0.665,0.782,0.741,0.698,0.723,0.811,0.775,0.766,0.708,0.941,0.967,0.917,0.857,0.948,,,,,
A549,,,,,,,,,,,0.988,0.927,0.948,0.899,1.02,,,,,
NCI-H2009,0.982,0.993,1.08,1.03,0.957,0.507,0.693,0.764,0.616,0.467,1.17,1.22,1.21,1.23,1.11,,,,,
COR-L 105,1.21,1.01,0.895,0.892,0.939,0.634,0.641,0.477,0.687,0.609,1.1,1.05,0.967,0.926,0.991,,,,,
SK-LU-1,1.01,0.941,1.03,0.961,0.781,0.373,0.366,0.429,0.346,0.244,0.891,0.881,0.857,0.651,0.581,,,,,
